Results: patent US20240158446A1, “CYCLIC COMPOUND HAVING SELECTIVE INHIBITORY ACTION ON KRAS OVER HRAS AND NRAS” (CHUGAI SEIYAKU KABUSHIKI KAISHA, priority 2021, published 2024)

Legend:
[1] = target: GDP-bound HRAS wild-type protein (Homo sapiens, UniProt P01112); experiment: Binding to HRAS by surface plasmon resonance (SPR), Single Cycle Kinetics; settings: SPR; GDP-bound HRAS wild-type protein vs GDP-bound KRAS wild-type protein; KD ratio class
[2] = target: GDP-bound KRAS wild-type protein (Homo sapiens, UniProt P01116); experiment: Binding to KRAS by surface plasmon resonance (SPR), Single Cycle Kinetics; settings: SPR, Single Cycle Kinetics, 1:1 binding model; GDP-bound KRAS wild-type protein; read-out: KRAS KD
GDP-bound KRAS wild-type protein, sequence (P01116 whole entry): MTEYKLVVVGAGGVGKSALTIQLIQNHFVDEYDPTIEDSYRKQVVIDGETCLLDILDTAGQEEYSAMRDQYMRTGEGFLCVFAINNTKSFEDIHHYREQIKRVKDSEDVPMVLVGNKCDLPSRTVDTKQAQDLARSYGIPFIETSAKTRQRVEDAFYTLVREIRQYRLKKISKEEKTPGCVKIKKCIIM

[3] = target: GDP-bound NRAS wild-type protein (Homo sapiens, UniProt P01111); experiment: Binding to NRAS by surface plasmon resonance (SPR), Single Cycle Kinetics; settings: SPR; GDP-bound NRAS wild-type protein vs GDP-bound KRAS wild-type protein; KD ratio class
GDP-bound NRAS wild-type protein, sequence (P01111 whole entry): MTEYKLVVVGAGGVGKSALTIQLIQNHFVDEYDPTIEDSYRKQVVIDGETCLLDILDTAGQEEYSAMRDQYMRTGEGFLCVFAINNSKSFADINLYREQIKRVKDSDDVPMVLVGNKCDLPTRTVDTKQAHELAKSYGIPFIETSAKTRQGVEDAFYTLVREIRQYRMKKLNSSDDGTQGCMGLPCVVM

GDP-bound HRAS wild-type protein, sequence (P01112 whole entry): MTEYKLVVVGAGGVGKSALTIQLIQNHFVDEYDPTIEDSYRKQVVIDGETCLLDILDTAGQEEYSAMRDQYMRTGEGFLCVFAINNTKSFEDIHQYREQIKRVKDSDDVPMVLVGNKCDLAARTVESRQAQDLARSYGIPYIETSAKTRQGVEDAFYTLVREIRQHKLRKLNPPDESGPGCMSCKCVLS

Structure (SMILES) | Kd [2] [nM] | HRAS/KRAS (ratio of KD value for HRAS to KD value for KRAS) [1] | NRAS/KRAS (ratio of KD value for NRAS to KD value for KRAS) [3]
CC[C@H](C)[C@@H]1NC(=O)[C@H](CC2CC2)N(C)C(=O)C[C@@H](C(=O)N(C)C)N(C)C(=O)[C@H](C2CCCC2)N(C)C(=O)C2(CC(C)(C)C2)NC(=O)[C@@H]2C[C@@H](C(F)(F)F)CN2C(=O)[C@H](CCc2cc(F)c(C(F)(F)F)c(F)c2)NC(=O)CN(C)C(=O)[C@H](Cc2ccc(C(F)(F)F)cc2)N2CC/C=C\C[C@@H](C2=O)N(C)C(=O)CN(C)C1=O [PP1504] | 0.32 | A (a compound having 10 or more and less than 20 is denoted as A) | A (a compound having 10 or more and less than 20 is denoted as A)
CC[C@H](C)[C@@H]1NC(=O)[C@H](CC2CC2)N(C)C(=O)C[C@@H](C(=O)N(C)C)N(C)C(=O)[C@H](C2CCCC2)N(C)C(=O)C2(CC(C)(C)C2)NC(=O)[C@@H]2C[C@@H](C(F)(F)F)CN2C(=O)[C@H](CCc2cc(F)c(C(F)(F)F)c(F)c2)NC(=O)CN(C)C(=O)[C@H](Cc2ccc(F)cc2)N2CC/C=C\C[C@@H](C2=O)N(C)C(=O)CN(C)C1=O [PP1507] | 0.17 | A (a compound having 10 or more and less than 20 is denoted as A) | A (a compound having 10 or more and less than 20 is denoted as A)
CC[C@H](C)[C@@H]1NC(=O)[C@H](CC2CC2)N(C)C(=O)C[C@@H](C(=O)N(C)C)N(C)C(=O)[C@H](C2CCCC2)N(C)C(=O)C2(CCCC2)NC(=O)[C@@H]2CC(F)(F)CN2C(=O)[C@H](CCc2cc(F)c(C(F)(F)F)c(F)c2)NC(=O)CN(C)C(=O)[C@H](Cc2ccc(C(F)(F)F)cc2)N2CC/C=C\C[C@@H](C2=O)N(C)C(=O)CN(C)C1=O [PP1513, (2S,8S,14S,20S,23S,27S,30S,36S,38Z)-20-cyclopentyl-27-(cyclopropylmethyl)-8-[2-[3,5-difluoro-4-(trifluoromethyl)phenyl]ethyl]-12,12-difluoro-N,N,4,19,22,26,32,35-octamethyl-30-[(1S)-1-methylpropyl]-3,6,9,15,18,21,25,28,31,34,42-undecaoxo-2-[[4-(trifluoromethyl)phenyl]methyl]spiro[1,4,7,10,16,19,22,26,29,32,35-undecazatricyclo[34.5.1.0^10,14]dotetracont-38-ene-17,1′-cyclopentane]-23-carboxamide] | 0.071 | A (a compound having 10 or more and less than 20 is denoted as A) | A (a compound having 10 or more and less than 20 is denoted as A)
CCO[C@@H]1C[C@H]2C(=O)NC3(CCC3)C(=O)N(C)[C@@H](C(CC)CC)C(=O)N(C)[C@H](C(=O)N(C)C)CC(=O)N(C)[C@@H](CC3CCCC3)C(=O)N[C@@H]([C@@H](C)CC)C(=O)N(C)CC(=O)N(C)[C@H]3C/C=C\CCN(C3=O)[C@@H](Cc3ccc(F)cc3C)C(=O)N(C)CC(=O)N[C@@H](CCc3cc(F)c(C(F)(F)F)c(F)c3)C(=O)N2C1 [PP1516] | 0.98 | B (a compound having 3 or more and less than 10 is denoted as B) | A (a compound having 10 or more and less than 20 is denoted as A)

Second part, led by results:

Kd [2] [nM] | Structure (SMILES) | HRAS/KRAS (ratio of KD value for HRAS to KD value for KRAS) [1] | NRAS/KRAS (ratio of KD value for NRAS to KD value for KRAS) [3]
0.092 | CC[C@H](C)[C@@H]1NC(=O)[C@H](CC2CCCC2)N(C)C(=O)C[C@@H](C(=O)N(C)C)N(C)C(=O)[C@H](C2CCCC2)N(C)C(=O)C2(CCC2)NC(=O)[C@@H]2C[C@@H](C(F)(F)F)CN2C(=O)[C@H](CCc2cc(F)c(C(F)(F)F)c(F)c2)NC(=O)CN(C)C(=O)[C@H](Cc2ccc(C(F)(F)F)cc2)N2CC/C=C\C[C@@H](C2=O)N(C)C(=O)CN(C)C1=O [PP1505] | A (a compound having 10 or more and less than 20 is denoted as A) | A (a compound having 10 or more and less than 20 is denoted as A)
0.34 | CC[C@H](C)[C@@H]1NC(=O)[C@H](CC2CC2)N(C)C(=O)C[C@@H](C(=O)N2CCCC2)N(C)C(=O)[C@H](C2CCCC2)N(C)C(=O)C2(CCCC2)NC(=O)[C@@H]2C[C@@H](C(F)(F)F)CN2C(=O)[C@H](CCc2cc(F)c(C(F)(F)F)c(F)c2)NC(=O)CN(C)C(=O)[C@H](Cc2ccc(C(F)(F)F)cc2)N2CC/C=C\C[C@@H](C2=O)N(C)C(=O)CN(C)C1=O [PP1506] | A (a compound having 10 or more and less than 20 is denoted as A) | AA (a compound having 20 or more is denoted as AA)
0.11 | CC[C@H](C)[C@@H]1NC(=O)[C@H](CC2CC2)N(C)C(=O)C[C@@H](C(=O)N2CCCC2)N(C)C(=O)[C@H](C2CCCC2)N(C)C(=O)C2(CCC2)NC(=O)[C@@H]2C[C@H](C)CN2C(=O)[C@H](CCc2cc(F)c(C(F)(F)F)c(F)c2)NC(=O)CN(C)C(=O)[C@H](Cc2ccc(C(F)(F)F)cc2)N2CC/C=C\C[C@@H](C2=O)N(C)C(=O)CN(C)C1=O [PP1510, (2S,8S,12S,14S,20S,23S,27S,30S,36S,38Z)-20-cyclopentyl-27-(cyclopropylmethyl)-8-[2-[3,5-difluoro-4-(trifluoromethyl)phenyl]ethyl]-4,12,19,22,26,32,35-heptamethyl-30-[(1S)-1-methylpropyl]-23-(pyrrolidine-1-carbonyl)-2-[[4-(trifluoromethyl)phenyl]methyl]spiro[1,4,7,10,16,19,22,26,29,32,35-undecazatricyclo[34.5.1.0^10,14]dotetracont-38-ene-17,1′-cyclobutane]-3,6,9,15,18,21,25,28,31,34,42-undecone] | A (a compound having 10 or more and less than 20 is denoted as A) | AA (a compound having 20 or more is denoted as AA)
0.099 | CC[C@H](C)[C@@H]1NC(=O)[C@H](CC2CC2)N(C)C(=O)C[C@@H](C(=O)N(C)C)N(C)C(=O)[C@H](C2CCCC2)N(C)C(=O)C2(CCCC2)NC(=O)[C@@H]2C[C@H](C)CN2C(=O)[C@H](CCc2cc(F)c(C(F)(F)F)c(F)c2)NC(=O)CN(C)C(=O)[C@H](Cc2ccc(C(F)(F)F)cc2)N2CC/C=C\C[C@@H](C2=O)N(C)C(=O)CN(C)C1=O [PP1511, (2S,8S,12S,14S,20S,23S,27S,30S,36S,38Z)-20-cyclopentyl-27-(cyclopropylmethyl)-8-[2-[3,5-difluoro-4-(trifluoromethyl)phenyl]ethyl]-N,N,4,12,19,22,26,32,35-nonamethyl-30-[(1S)-1-methylpropyl]-3,6,9,15,18,21,25,28,31,34,42-undecaoxo-2-[[4-(trifluoromethyl)phenyl]methyl]spiro[1,4,7,10,16,19,22,26,29,32,35-undecazatricyclo[34.5.1.0^10,14]dotetracont-38-ene-17,1′-cyclopentane]-23-carboxamide] | A (a compound having 10 or more and less than 20 is denoted as A) | AA (a compound having 20 or more is denoted as AA)
0.084 | CC[C@H](C)[C@@H]1NC(=O)[C@H](CC2CC2)N(C)C(=O)C[C@@H](C(=O)N2CCCC2)N(C)C(=O)[C@H](C2CCCC2)N(C)C(=O)C2(CCC2)NC(=O)[C@@H]2CC(F)(F)CN2C(=O)[C@H](CCc2cc(F)c(C(F)(F)F)c(F)c2)NC(=O)CN(C)C(=O)[C@H](Cc2ccc(C(F)(F)F)cc2)N2CC/C=C\C[C@@H](C2=O)N(C)C(=O)CN(C)C1=O [PP1512] | A (a compound having 10 or more and less than 20 is denoted as A) | AA (a compound having 20 or more is denoted as AA)
